According to US12528818B2, “Compositions and methods for inhibition of RAS” (Leidos Biomedical Research, Inc., priority 2021, dated 2026):
pIC50: −log10 of the molar value.

What follows are molecules tested on pERK in NCI-H358 cells (assay: Cell-based pERK HTRF assay (pERK inhibition in H358 cells)). Settings: Homo sapiens, NCI-H358, 0.5 h, pERK inhibition IC50, NCI-H358 cells, 30 min incubation; read-out: PERK in H358 cell.

Row | SMILES | pIC50
1 | C=CC(=O)N1C[C@@H](F)[C@@H](N(C)c2nc(OC[C@@H]3CC4(CC4)CN3C)nc3cc(-c4ccc(F)c5sc(N)nc45)c(C(F)(F)F)cc23)C1 [Compound 351] | > 7.00
2 | C=CC(=O)N1CC[C@@H](N(C)c2nc(OC[C@@H]3C[C@@H](F)CN3C3CC3)nc3c(F)c(-c4ccc(F)c5sc(N)nc45)c(C(F)(F)F)cc23)C1 [Compound 273] | 6.00 to 7.00
3 | C=CC(=O)N1C[C@@H](F)[C@@H](N(C)c2nc(OC[C@@]34CCCN3C[C@H](F)C4)nc3c(F)c(-c4ccc(F)c5sc(N)nc45)ccc23)C1 [Compound 353] | > 7.00
4 | C=CC(=O)N1C[C@H](C)N(c2nc(OCC3(CN4CCOCC4)CC3)nc3c(F)c(-c4ccc(F)c5sc(N)nc45)c(C(F)(F)F)cc23)C[C@H]1C [Compound 285] | > 7.00
5 | C=CC(=O)N1CC(Nc2nc(OC[C@@H]3CCCN3C)nc3c(F)c(-c4cccc5oc(N)nc45)c(Cl)cc23)C1 [Compound 88] | < 6.00
6 | C=CC(=O)N1CC(N(c2nc(OCC3CCCN3C)nc3c(F)c(-c4ccc(F)c5sc(N)nc45)c(Cl)cc23)C(C)C)C1 (centres unmarked) [Compound 159] | < 6.00
7 | C=CC(=O)N1CC[C@@H](N(C)c2nc(OC[C@@H]3C[C@@H](F)CN3C)nc3c(F)c(-c4ccc(F)c5sc(N)nc45)c(C(F)(F)F)cc23)C1 (atropisomer, axis not shown) [Compound 231] | 6.00 to 7.00
8 | C=CC(=O)N1C[C@@H](F)[C@@H](N(C)c2nc(OC[C@@H]3CC4(CC4)CN3C)nc3cc(-c4ccc(F)c5sc(N)c(C#N)c45)c(C(F)(F)F)cc23)C1 [Compound 357] | > 7.00
9 | C=CC(=O)N1CCC[C@@H](N(C)c2nc(OC[C@@]34CCCN3C[C@H](F)C4)nc3c(F)c(-c4ccc(F)c5sc(N)nc45)c(Cl)cc23)C1 (atropisomer, axis not shown) [Compound 241] | > 7.00
10 | C=CC(=O)N1CCC(N(C)c2nc(OC[C@@H]3CCCN3C)nc3c(F)c(-c4ccc(F)c5sc(N)c(C#N)c45)c(C(F)(F)F)cc23)C1COC (stereo partly drawn) [Compound 426, 4-(4-((1-acryloyl-2-(methoxymethyl)pyrrolidin-3-yl)(methyl)amino)-8-fluoro-2-(((S)-1-methylpyrrolidin-2-yl)methoxy)-6-(trifluoromethyl)quinazolin-7-yl)-2-amino-7-fluorobenzo[b]thiophene-3-carbonitrile] | > 7.00
11 | C=CC(=O)N1CC[C@@H]2[C@H]1CN2c1nc(OC[C@@H]2C[C@@H](F)CN2C)nc2c(F)c(-c3ccc(F)c4sc(N)nc34)c(Cl)cc12 [Compound 89] | > 7.00
12 | C=CC(=O)N1CCC(N(C)c2nc(OCCOC)nc3c(F)c(-c4ccc(F)c5sc(N)c(C#N)c45)ccc23)[C@H]1C (some centres unmarked) [Compound 466] | < 6.00
13 | N#CN1CC(Nc2ncnc3c(F)c(-c4ccc(F)c5sc(N)nc45)c(C(F)(F)F)cc23)C1 [Compound 45] | > 7.00
14 | CN1CCC[C@H]1COc1nc(NC2CCN(C#N)CC2)c2cc(Cl)c(-c3ccc(F)c4sc(N)nc34)c(F)c2n1 [Compound 55] | < 6.00
15 | C=CC(=O)N1CCN(c2nc(OC[C@@H]3CCCN3C)nc3c(F)c(-c4ccc(F)c5sc(N)nc45)c(C(F)(F)F)cc23)CC1 [Compound 71, 1-(4-(7-(2-amino-7-fluorobenzo[d]thiazol-4-yl)-8-fluoro-2-(((S)-1-methylpyrrolidin-2-yl)methoxy)-6-(trifluoromethyl)quinazolin-4-yl)piperazin-1-yl)prop-2-en-1-one] | > 7.00
16 | C=CC(=O)N1CCC(N(C)c2nc(OC)nc3c(F)c(-c4ccc(F)c5sc(N)c(C#N)c45)ccc23)[C@H]1C (some centres unmarked) [Compound 461] | < 6.00
17 | C=CC(=O)N1CCC(N(C)c2nc(OC[C@@H]3C[C@@H](F)CN3C)nc3cc(-c4ccc(F)c5sc(N)c(C#N)c45)c(C#N)cc23)[C@H]1COC (some centres unmarked) [Compound 444] | > 7.00
18 | C=CC(=O)N1CC(N(CCC#N)c2nc(OC[C@@H]3CCCN3C)nc3c(F)c(-c4ccc(F)c5sc(N)nc45)c(Cl)cc23)C1 [Compound 141] | < 6.00
19 | CC#CC(=O)N1CCN(c2nc(OC[C@@H]3CCCN3CCF)nc3c(F)c(-c4ccc(F)c5sc(N)nc45)c(C(F)(F)F)cc23)CC1 [Compound 154] | 6.00 to 7.00
20 | C=CC(=O)N1CC(Nc2nc(OCC34CCCN3CCC4)nc3c(F)c(-c4ccc(F)c5sc(N)nc45)c(Cl)cc23)C1 [Compound 49, 1-(3-((7-(2-amino-7-fluorobenzo[d]thiazol-4-yl)-6-chloro-8-fluoro-2-((tetrahydro-1H-pyrrolizin-7a(5H)-yl)methoxy)quinazolin-4-yl)amino)azetidin-1-yl)prop-2-en-1-one] | < 6.00
21 | C=CC(=O)N1CCN(c2ncnc3c(F)c(-c4ccc(F)c5sc(N)nc45)c(Cl)c(OC)c23)CC1 [Compound 82] | > 7.00

Results, then the molecule that gave them:

Row | pIC50 | SMILES
22 | > 7.00 | C=CC(=O)N1C[C@H](C)N(c2nc(OC[C@@]34CCCN3C[C@H](F)C4)nc3c(F)c(-c4ccc(F)c5sc(N)nc45)c(OC(F)(F)F)cc23)C[C@H]1C [Compound 235, 1-((2R,5S)-4-(7-(2-amino-7-fluorobenzo[d]thiazol-4-yl)-8-fluoro-2-(((2R,7aS)-2-fluorotetrahydro-1H-pyrrolizin-7a(5H)-yl)methoxy)-6-(trifluoromethoxy)quinazolin-4-yl)-2,5-dimethylpiperazin-1-yl)prop-2-en-1-one]
23 | > 7.00 | C=CC(=O)N1CCC(N(C)c2nc(OC[C@]34CCCN3C[C@H](F)C4)nc3c(F)c(-c4ccc(F)c5sc(N)c(C#N)c45)c(C(F)(F)F)cc23)[C@H]1C (some centres unmarked) [Compound 477]
24 | > 7.00 | C=CC(=O)N1CCN(c2nc(OC[C@@]34CCCN3C[C@H](F)C4)nc3c(F)c(-c4ccc(F)c5sc(N)c(C#N)c45)c(C(F)(F)F)cc23)[C@@H](C)C1 [Compound 347]
25 | > 7.00 | C=CC(=O)N1C[C@@H](F)[C@@H](N(CC)c2nc(OC[C@@]34CCCN3C[C@H](F)C4)nc3c(F)c(-c4ccc(F)c5sc(N)c(C#N)c45)c(Cl)cc23)C1 [Compound 368]
26 | > 7.00 | C=CC(=O)N1C[C@H](N(C)c2nc(OC[C@@]34CCCN3C[C@H](F)C4)nc3c(F)c(-c4ccc(F)c5sc(N)c(C#N)c45)ccc23)C[C@H]1C [Compound 319]
27 | > 7.00 | C=CC(=O)N1CCN(c2nc(OCC34CCCN3C[C@H](OC)C4)nc3c(F)c(-c4ccc(F)c5sc(N)nc45)c(C(F)(F)F)cc23)CC1 (some centres unmarked) [Compound 209]
28 | > 7.00 | C=CC(=O)N1CC[C@H](N(C)c2nc(OC[C@@]34CCCN3C[C@H](F)C4)nc3c(F)c(-c4ccc(F)c5sc(N)c(C#N)c45)c(Cl)cc23)[C@@H]1C (atropisomer, axis not shown) [Compound 467]
29 | > 7.00 | C=CC(=O)N1CC[C@@H]2[C@H]1CN2c1nc(OC[C@@]23CCCN2C[C@H](F)C3)nc2c(F)c(-c3ccc(F)c4sc(N)c(C#N)c34)c(C(F)(F)F)cc12 [Compound 339]
30 | > 7.00 | C=CC(=O)N1CCN(c2nc(OC[C@]34CCCN3C[C@H](F)C4)nc3c(F)c(-c4ccc(F)c5sc(N)nc45)c(C(F)(F)F)cc23)C[C@H]1C [Compound 190]
31 | > 7.00 | C=CC(=O)N1C[C@H](C)N(c2nc(OC[C@@]34CCCN3C[C@H](F)C4)nc3c(F)c(-c4ccc(F)c5sc(N)nc45)c(Cl)cc23)C[C@H]1C [Compound 266]
32 | 6.00 to 7.00 | C=CC(=O)N1[C@H](C)CN(c2nc(OC[C@@]34CCCN3C[C@H](F)C4)nc3c(F)c(-c4ccc(F)c5sc(N)c(C#N)c45)c(C(F)(F)F)cc23)C[C@H]1C [Compound 330]
33 | > 7.00 | C=CC(=O)N1C[C@H](N(C)c2nc(OC[C@@]34CCCN3C[C@H](F)C4)nc3c(F)c(-c4ccc(F)c5sc(N)nc45)c(C(F)(F)F)cc23)C[C@@H]1C [Compound 293]
34 | > 7.00 | C=CC(=O)N1CCC(N(C)c2nc(OC[C@@]34CCCN3C[C@H](F)C4)nc3c(F)c(-c4ccc(F)c5sc(N)c(C#N)c45)ccc23)[C@H]1COC (some centres unmarked) [Compound 402]
35 | 6.00 to 7.00 | C=CC(=O)N1CCN(c2nc(OC[C@@]34CCCN3C[C@@H](F)C4)nc3c(F)c(-c4ccc(F)c5sc(N)nc45)c(C(F)(F)F)cc23)[C@H](C)C1 [Compound 217]
36 | < 6.00 | C=CC(=O)N1C[C@@H](N(C)c2nc(OC[C@@]34CCCN3C[C@H](F)C4)nc3c(F)c(-c4ccc(F)c5sc(N)nc45)c(C(F)(F)F)cc23)C(C)(C)C1 [Compound 283]
37 | > 7.00 | C=CC(=O)N1C[C@H](C)N(c2nc(OC[C@@]34CCCN3C[C@H](F)C4)nc3c(F)c(-c4ccc(F)c5sc(N)c(C#N)c45)c(C(F)(F)F)cc23)C[C@@H]1C [Compound 349]
38 | > 7.00 | C=CC(=O)N1C[C@H](C)N(c2nc(OC[C@]3(C)CCCN3C)nc3c(F)c(-c4ccc(F)c5sc(N)c(C#N)c45)c(C(F)(F)F)cc23)C[C@H]1C [Compound 447, 4-(4-((2S,5R)-4-acryloyl-2,5-dimethylpiperazin-1-yl)-2-(((S)-1,2-dimethylpyrrolidin-2-yl)methoxy)-8-fluoro-6-(trifluoromethyl)quinazolin-7-yl)-2-amino-7-fluorobenzo[b]thiophene-3-carbonitrile]
39 | > 7.00 | C=CC(=O)N1C[C@@H](F)[C@@H](N(C)c2nc(OC[C@@]34CCCN3C[C@H](F)C4)nc3cc(-c4ccc(F)c5sc(N)c(C#N)c45)c(C#N)cc23)C1 [Compound 372]
40 | > 7.00 | C=CC(=O)N1C[C@H](N(C)c2nc(OC[C@@]34CCCN3C[C@H](F)C4)nc3c(F)c(-c4ccc(F)c5sc(N)nc45)c(C(F)(F)F)cc23)C(C)(C)C1 [Compound 301]

Same assay, conditions: pERK inhibition IC50, NCI-H358 cells, 30 min incubation; read-out: PERK in H358 cell

Row | pIC50 | SMILES
41 | > 7.00 | C=CC(=O)N1CCC[C@@H](N(C)c2nc(OC[C@@]34CCCN3C[C@H](F)C4)nc3c(F)c(-c4ccc(F)c5sc(N)nc45)c(C(F)(F)F)cc23)C1 [Compound 244]
42 | 6.00 to 7.00 | C=CC(=O)N1CCC[C@@H](N(C)c2nc(OC[C@@]34CCCN3C[C@H](F)C4)nc3c(F)c(-c4ccc(F)c5sc(N)nc45)c(Cl)cc23)C1 (atropisomer, axis not shown) [Compound 242]
43 | < 6.00 | C=CC(=O)N1C[C@H](N(C)c2ncnc3c(F)c(-c4ccc(F)c5sc(N)nc45)c(C(F)(F)F)cc23)C2(CC2)C1 (atropisomer, axis not shown) [Compound 264]
44 | > 7.00 | C=CC(=O)N1CC[C@@H](N(C)c2nc(OC[C@@]34CCCN3C[C@H](F)C4)nc3c(F)c(-c4ccc(F)c5sc(N)c(C#N)c45)c(C(F)(F)F)cc23)[C@H]1C (single isomer, unassigned) [Compound 434]
